These results are taken from US20070213339A1 (Bayer Pharmaceuticals Corporation, priority 2004, published 2007).

The test system of this test is Colo205 human colon carcinoma cell line. Description: In vitro tumor cell proliferation assay (MTS, CellTiter 96 Aqueous One Solution). The class given is cell-based. The following applies: COLO 205, Colo205 cells, 72 hours compound exposure, MTS absorbance at 490 nm, read-out: IC50 (concentration of test compound required to inhibit proliferation of 50% of the cells). Summed up: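 Colo205 cells seeded at 2000 cells/well in RPMI-1640 with 10% serum, exposed to compound for 72 h at 37 °C, 5% CO2, in a 5-point dose-response up to 10-20 μM. Viability read by MTS absorbance at 490 nm; IC50 from background-corrected percent inhibition by linear regression.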
Turning to `COc1cc(CNC2CCCC2)ccc1-n1cc(C(=O)O)c(=O)c2cc(F)c(N3CCN(c4ccc(F)cc4)CC3)c(Cl)c21` [Example 179, 8-chloro-1-(4-cyclopentylaminomethyl-2-methoxyphenyl)-6-fluoro-7-[4-(4-fluorophenyl)-piperazine-1-yl]-4-oxo-1,4-dihydroquinoline-3-carboxylic acid], the IC50 was 500 to 2000 nM. Under `O=C(O)c1cn(-c2ccc(CNC3CCCC3)cc2)c2c(OC(F)(F)Cl)c(N3CCN(c4ccccn4)CC3)c(F)cc2c1=O` [Example 180, 8-(chloro-difluoromethoxy)-1-(4-cyclopentylaminomethyl-phenyl)-6-fluoro-4-oxo-7-(4-pyridin-2-yl-piperazin-1-yl)-1,4-dihydroquinoline-3-carboxylic acid] stands below 500 nM; under `O=C(O)c1cn(-c2ccc(CNC3CCCC3)cc2)c2c(OC(F)(F)Cl)c(N3CCN(c4ccc(F)cc4)CC3)c(F)cc2c1=O` [Example 181, 8-(chloro-difluoromethoxy)-1-(4-cyclopentylaminomethyl-phenyl)-6-fluoro-4-oxo-7-[4(4-fluorophenyl)piperazine-1-yl]-1,4-dihydroquinoline-3-carboxylic acid], below 500 nM; under `O=C(O)c1cn(-c2ccc(CNC3CCCC3)cc2)c2c(OC(F)(F)F)c(N3CCN(c4ccc(F)cc4)CC3)c(F)cc2c1=O` [Example 182, 1-(4-cyclopentylaminomethyl-phenyl)-6-fluoro-7-[4-(4-fluorophenyl)-piperazine-1-yl]-4-oxo-8-trifluoromethoxy-1,4-dihydroquinoline-3-carboxylic acid], below 500 nM. Under `N#Cc1cccnc1N1CCN(c2c(F)cc3c(=O)c(C(=O)O)cn(-c4ccc(CN5CCCC5)c(F)c4)c3c2Cl)CC1` [Example 184, 8-chloro-7-[4-(3-cyanopyridin-2-yl)-piperazine-1-yl]-6-fluoro-1-(3-fluoro-4-pyrrolidin-1-ylmethyl-phenyl)-4-oxo-1,4-dihydroquinoline-3-carboxylic acid] stands below 500 nM. Regarding `N#Cc1ccccc1N1CCN(c2c(F)cc3c(=O)c(C(=O)O)cn(-c4ccc(CN5CCCC5)c(F)c4)c3c2Cl)CC1` [Example 185, 8-chloro-7-[4-(2-cyanophenyl)-piperazine-1-yl]-6-fluoro-1-(3-fluoro-4-pyrrolidin-1-ylmethyl-phenyl)-4-oxo-1,4-dihydroquinoline-3-carboxylic acid], the IC50 is below 500 nM. With `O=C(O)c1cn(-c2ccc(CN3CCCC3)c(F)c2)c2c(Cl)c(N3CCN(c4ccc(F)cc4)CC3)c(F)cc2c1=O` [Example 186, 8-chloro-7-[4-(4-fluorophenyl)-piperazine-1-yl]-6-fluoro-1-(3-fluoro-4-pyrrolidin-1-ylmethyl-phenyl)-4-oxo-1,4-dihydroquinoline-3-carboxylic acid], the IC50 is below 500 nM. With `O=C(O)c1cn(-c2ccc(CN3CCCC3)c(F)c2)c2c(Cl)c(N3CCN(c4ccc(Cl)cc4)CC3)c(F)cc2c1=O` [Example 187, 8-chloro-7-[4-(4-chlorophenyl)-piperazine-1-yl]-6-fluoro-1-(3-fluoro-4-pyrrolidin-1-ylmethyl-phenyl)-4-oxo-1,4-dihydroquinoline-3-carboxylic acid], the IC50 was below 500 nM. For the compound `N#Cc1ccc(N2CCN(c3c(F)cc4c(=O)c(C(=O)O)cn(-c5ccc(CN6CCCC6)c(F)c5)c4c3Cl)CC2)cc1` [Example 188, 8-chloro-7-[4-(4-cyanophenyl)-piperazine-1-yl]-6-fluoro-1-(3-fluoro-4-pyrrolidin-1-ylmethyl-phenyl)-4-oxo-1,4-dihydroquinoline-3-carboxylic acid], the IC50 is below 500 nM. Under `O=C(O)c1cn(-c2ccc(CNC3CCCCC3)cc2)c2c(Cl)c(N3CCN(c4ncccn4)CC3)c(F)cc2c1=O` [Example 189, 8-chloro-1-(4-cyclohexylaminomethyl-phenyl)-6-fluoro-4-oxo-7-(4-pyrimidin-2-yl-piperazin-1-yl)-1,4-dihydroquinoline-3-carboxylic acid] stands below 500 nM. For `O=C(O)c1cn(-c2ccc(CNCC3CCCCC3)cc2)c2c(Cl)c(N3CCN(c4ncccn4)CC3)c(F)cc2c1=O` [Example 190, 8-chloro-1-{4-[(4-cyclohelmethyl-amino)-methyl]-phenyl}-6-fluoro-4-oxo-7-(4-pyrimidin-2-yl-piperazin-1-yl)-1,4-dihydroquinoline-3-carboxylic acid], the IC50 is 2000 to 20000 nM. Regarding `O=C(O)c1cn(-c2ccc(CNC3CCC3)cc2)c2c(Cl)c(N3CCN(c4ncccn4)CC3)c(F)cc2c1=O` [Example 191, 8-chloro-1-(4-cyclobutylaminomethyl-phenyl)-6-fluoro-4-oxo-7-(4-pyrimidin-2-yl-piperazin-1-yl)-1,4-dihydroquinoline-3-carboxylic acid], the IC50 was below 500 nM. Under `COc1c(N2CCN(c3ccc(C#N)cc3)CC2)c(F)cc2c(=O)c(C(=O)O)cn(-c3ccc(CN4CCCCC4)cc3)c12` [Example 192, 7-[4-(4-cyanophenyl)-piperazine-1-yl]-6-fluoro-8-methoxy-4-oxo-1-(4-piperidin-1-ylmethyl-phenyl)-1,4-dihydroquinoline-3-carboxylic acid] stands below 500 nM; under `COc1c(N2CCN(c3ncccn3)CC2)c(F)cc2c(=O)c(C(=O)O)cn(-c3ccc(CN4CCCCC4)cc3)c12` [Example 193, 6-fluoro-8-methoxy-4-oxo-1-(4-piperidin-1-ylmethyl-phenyl)-7-(4-pyrimidine-2-yl-piperazine-1-yl]-1,4-dihydroquinoline-3-carboxylic acid], below 500 nM; under `COc1c(N2CCN(c3ccccn3)CC2)c(F)cc2c(=O)c(C(=O)O)cn(-c3ccc(CN4CCCCC4)cc3)c12` [Example 194, 6-fluoro-8-methoxy-4-oxo-1-(4-piperidin-1-ylmethyl-phenyl)-7-(4-pyridin-2-yl-piperazine-1-yl]-1,4-dihydroquinoline-3-carboxylic acid], below 500 nM.
